According to US12180187B2, “1-phenyl-5-azinylpyrazolyl-3-oxyalkyl acids and their use for controlling unwanted plant growth” (BAYER AKTIENGESELLSCHAFT, priority 2019, dated 2024):

Key:
Conditions in all cases: greenhouse, scored visually after about 3 weeks vs untreated controls, 100% = plants have died, 0% = like control plants
ABUTH = assay: Pre-emergence action at 320 g/ha against ABUTH; type: in vivo, Abutilon theophrasti
Method in brief: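 Weed and crop seeds sown in pots and covered with soil; WP or EC formulations sprayed pre-emergence onto the soil surface at 320 g/ha with 0.5% additive in 600 l/ha water. Kept in greenhouse; after about 3 weeks activity scored visually as % versus untreated controls (100% = plants dead, 0% = as control).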

STEME = assay: Pre-emergence action at 320 g/ha against STEME; type: in vivo, Stellaria media
Excerpt: (§1) b) Seeds of monocotyledonous and dicotyledonous weed plants and crop plants are placed in plastic or organic planting pots and covered with soil. The compounds of the invention, formulated in the form of wettable powders (WP) or as emulsion concentrates (EC), are then applied onto the surface of the covering soil as aqueous suspension or emulsion with addition of 0.5% additive at a water application rate of 600 l/ha (converted). After the treatment, the pots are placed in a greenhouse and kept under good growth conditions for the trial plants. After about 3 weeks, the effect of the preparations is scored visually in comparison with untreated controls as percentages. For example, 100% activity=the plants have died, 0% activity=like control plants. Tables 13 to 26 below show the effects of selected compounds of the general formula (I) on various harmful plants and at an application rate corresponding to 320 g/ha, which were obtained by the experimental procedure mentioned above.

HORMU = assay: Pre-emergence action at 320 g/ha against HORMU; type: in vivo, Hordeum murinum
Excerpt: as §1

Row | Structure (SMILES) | Pre-emergence action at 320 g/ha against ABUTH in % (ABUTH) | Pre-emergence action at 320 g/ha against STEME in % (STEME) | Pre-emergence action at 320 g/ha against HORMU in % (HORMU)
1 | COC(=O)COc1nn(-c2ccccc2F)c(-c2cncnc2)c1Br [VI-004, Methyl {[4-bromo-1-(2-fluorophenyl)-5-(pyrimidin-5-yl)-1H-pyrazol-3-yl]oxy}acetate] | 80% | 90% | 100%
2 | O=C(O)COc1nn(-c2ccccc2F)c(-c2cncnc2)c1Br [VI-007, {[4-Bromo-1-(2-fluorophenyl)-5-(pyrimidin-5-yl)-1H-pyrazol-3-yl]oxy}acetic Acid] | – | 100% | 100%
3 | COC(=O)[C@@H](C)Oc1nn(-c2ccccc2F)c(-c2cncnc2)c1Br [VI-011, Methyl (2R)-2-{[4-bromo-1-(2-fluorophenyl)-5-(pyrimidin-5-yl)-1H-pyrazol-3-yl]oxy}propanoate] | 80% | – | –
4 | C[C@@H](Oc1nn(-c2ccccc2F)c(-c2cncnc2)c1Br)C(=O)O [VI-012] | 80% | – | –
5 | COC(=O)[C@@H](C)Oc1nn(-c2ccccc2)c(-c2cncnc2)c1Br [VI-013] | 80% | – | –
6 | COC(=O)COc1nn(-c2ccc(F)cc2)c(-c2ccc(F)nc2)c1Br [VII-002] | – | 90% | 80%
7 | O=C(O)COc1nn(-c2ccccc2F)c(-c2ccc(F)nc2)c1Br [VII-003, {[4-Bromo-1-(2-fluorophenyl)-5-(6-fluoropyridin-3-yl)-1H-pyrazol-3-yl]oxy}acetic acid] | – | 90% | 90%
8 | COC(=O)[C@@H](C)Oc1nn(-c2ccccc2)c(-c2cccnc2)c1Br [VII-008] | 80% | – | –
9 | CCOC(=O)COc1nn(-c2ccccc2F)c(-c2ccc(F)nc2)c1Br [VII-012, Ethyl {[4-bromo-1-(2-fluorophenyl)-5-(6-fluoropyridin-3-yl)-1H-pyrazol-3-yl]oxy}acetate] | – | 100% | 80%
10 | CCOC(=O)COc1nn(-c2ccccc2F)c(-c2cncc(F)c2)c1Br [VII-015] | 80% | – | –
11 | CCOC(=O)COc1nn(-c2ccc(F)cc2F)c(-c2ccc(F)nc2)c1Cl [VII-016] | – | 90% | 90%
12 | CCOC(=O)C(C)Oc1nn(-c2ccccc2F)c(-c2ccc(F)nc2)c1Br (stereo not drawn) [VII-019] | – | 90% | 100%
13 | COC(=O)C(C)Oc1nn(-c2ccccc2)c(-c2ccc(F)nc2)c1Cl (stereo not drawn) [VII-023, Methyl 2-{[4-chloro-5-(6-fluoropyridin-3-yl)-1-phenyl-1H-pyrazol-3-yl]oxy}propanoate] | – | 90% | 100%
14 | COC(=O)COc1nn(-c2ccc(F)cc2)c(-c2cccnc2)c1Br [VII-028] | 90% | 90% | –
15 | CCC(Oc1nn(-c2ccccc2F)c(-c2ccc(F)nc2)c1Br)C(=O)OC (stereo not drawn) [VII-029] | – | 90% | 90%
16 | COC(=O)C(C)Oc1nn(-c2ccccc2)c(-c2cccnc2)c1Cl (stereo not drawn) [VII-032] | – | 90% | 80%
17 | COC(=O)COc1nn(-c2ccccc2F)c(-c2cncc(F)c2)c1Br [VII-035] | 90% | – | –
18 | COC(=O)[C@@H](C)Oc1nn(-c2cc(F)ccc2F)c(-c2cncc(F)c2)c1Br [VII-132] | 90% | – | –
19 | CCOC(=O)COc1nn(-c2ccccc2F)c(-c2ccnc(F)c2)c1Br [VIII-003, Ethyl {[4-bromo-1-(2-fluorophenyl)-5-(2-fluoropyridin-4-yl)-1H-pyrazol-3-yl]oxy}acetate] | – | 80% | 90%
20 | O=C(O)COc1nn(-c2ccccc2F)c(-c2ccnc(F)c2)c1Br [VIII-004] | – | 90% | –
